Tests used:
[1] = test system: New Zealand White female rabbits; test: Pain Tolerance Evaluation, Single Dose Rabbit Ear Vein Model Study; type: in vivo; conditions: single dose infusions in marginal ear vein, observed during and 30 minutes post infusion
Description: Pain Tolerance Evaluation Following Intravenous Infusion in Rabbit. Single Dose Rabbit Ear Vein Model Study. New Zealand White female rabbits weighing 2.5-3.2 kg are evaluated for pain, ear inflammation and phlebitis after intravenous infusion of test compound. Commercial azithromycin citrate is used as a positive control.
CEM-101 lyo (SOL (250.0 mg), mannitol, USP (250.0 mg), L(+)-tartaric acid, USP (29.0 mg), sodium hydroxide, NF (for pH adjustment to pH 4.2)) is reconstituted in a vehicle or formulation as described herein. The placebo is the same formulation without SOL. The reconstituted SOL or placebo is dissolved in an appropriate vehicles, such as 0.45% saline, 0.5% lactic acid at pH 4 in 0.45% saline, 0.5% lactic acid with 10 mM tartaric acid at pH 4 in 0.45% saline. CEM-101 lyo is dissolved in the appropriate vehicle at concentrations of 2 mg/mL or 3 mg/mL. The CEM-101 placebo formulation is dissolved in 0.45% saline. All rabbits are weighed to calculate dosing volumes.
Azithromycin lyophilized vials are commercially available azithromycin citrate for injection (ZITHROMAX IV) in lyophilized form in a 10-mL vial equivalent to 500 mg of azithromycin for intravenous administration. […]
Animals were observed during and post (30 minutes) each infusion, and reactions were scored according to a modified Draize Score and recorded. […]

[2] = Dynamic Precipitation Model (absorbance at 500 nm on infusion into blood surrogate); type: physicochemical
Description: Dynamic Precipitation Model. The dynamic precipitation apparatus is shown in FIG. 1, and is also described in Johnson et al., (2003). The apparatus includes a predetermined distance, illustratively a 15 cm distance, between the tip of the injection needle and the UV flow cell, and three main components to simulate blood flow and different infusion rates of drug. Illustratively, a Cole-Palmer-Masterflex® 7520-00 peristaltic pump is used to direct the flow of blood surrogate at 5 mL/min. Illustratively, a Harvard Apparatus Precision Syringe Pump 22 is used to infuse drug formulations into the system at various injection rates. Illustratively, a Cary UV-50 Bio Spectrophotometer with a 1.00 cm flow cell is used to monitor absorbance as a measure of precipitation in the formulation-blood surrogate system. Each sample is prepared by dissolving test compound and formulation agents into water or vehicle, and adjusting the pH with either 1 M HCl or 1 M NaOH, as appropriate to the indicated final concentration of test compound. Lactic, citric, and tartaric acid formulation agent stock solutions are made by dissolving the predetermined weight of solid or liquid into water and adjusting pH with either 1 M HCl or 1 M NaOH. The blood surrogate (Isotonic Sorensen's Phosphate Buffer, 0.067 M, pH 7.4) is pumped from a reservoir through Tygon® tubing (R-6306) fitted with 2 IV-set Y-injection sites that pass into the flow cell and terminate in a waste container. […]-35 flow meter, along with a timer and graduated cylinder, is used to measure the rate of surrogate blood flow through the system. Illustratively, flow is 5 mL/min. The test compound formulations are infused at different rates through the downstream second Y-injection site into the flow of the blood surrogate entering into the flow cell. A 0.001 M HCl solution is injected into the first Y-injection site following each infusion of test compound to flush the downstream tubing and flow cell. All injections are performed at 25° C. The spectrophotometer software (Cary UVWin) is set to read a constant absorbance, illustratively 500 nm, versus time. Samples are made with buffer and drug concentrations as described. After the flow rate is confirmed at 5 mL/min, the spectrophotometer is set to record absorbance at 500 nm for 5-10 minutes, and injections are performed at different rates as specified. To prevent any residual precipitation build up in the tubing or flow cell, a flush of pH 3 HCl is performed between injections. The flow cell is optionally visually inspected between runs for the presence of precipitation. Static precipitation measurements are also optionally performed by a two-fold serial dilution of test compound formulation in blood surrogate using a laser pointer as a Tyndall beam to determine the presence of particulates. […] An absorbance at or above 0.05 is considered to be the threshold level for assessing precipitation having phlebitic potential.

[3] = test system: dog; test: 28 day toxicology study, intravenous infusion, dog; type: in vivo; conditions: 28 days, tartrate-buffered solution of 1 mg/mL in 3% mannitol infused at approximately 1 mL/min
Text: (§1) An intravenous infusion solution of SOL and related compounds suitable for treatment in a disease such as moderately severe to severe community acquired bacterial pneumonia (CABP) is needed. […] However, without being bound by theory, it is believed herein that infusion at higher concentrations and/or at higher rates of infusion, which are highly desirable in the clinical setting, may not be practical with current formulations due to the substantially lower solubility observed with SOL and related compounds compared to other macrolide, enolide, and ketolide compounds.

[4] = Acid dissociation constants of SOL; type: physicochemical
Text: [drawing 4] and pharmaceutically acceptable salts, hydrates, solvates, esters, and prodrugs thereof. The following acid dissociation constants are observed for SOL, pKa1=9.44; pKa2=3.5. Such dissociation constants are illustrative of compounds that may be characterized as having low basicity.

[5] = test system: New Zealand White female rabbits; test: Tolerance Evaluation, Multiple-Dose Rabbit Ear Vein Model Study; type: in vivo
Description: Tolerance Evaluation of Following Intravenous Infusion in the Rabbit. Multiple-Dose Rabbit Ear Vein Model Study. New Zealand White female rabbits weighing 2.5-3.2 kg are evaluated for pain, ear inflammation and phlebitis after receiving an intravenous infusion of test compound once daily for 5 days.
SOL is dissolved in a 0.5% lactic acid formulation at pH 4, and then into 0.45% saline at concentrations of 2 mg/mL or 3 mg/mL.
Four rabbits are dosed; one vehicle-dosed and one each at 2 mg/mL (rate of 3 mL/min), 3 mg/mL (rate of 3 mL/min) and 3 mg/mL (rate of 4 mL/min). All rabbits receive a dose volume of 5 mL and are dosed via intravenous infusion in the right marginal ear vein once daily for 5 days. Animals are observed during and post (30 minutes) each infusion and reactions recorded.

[6] = test system: monkey; test: 28 day toxicology study, intravenous infusion, monkey; type: in vivo; conditions: 28 days, tartrate-buffered solution of 1 mg/mL in 3% mannitol infused at approximately 1 mL/min
Text: as §1

Azithromycin Citrate [Azitromycin citrate, reference compound]
reactions upon test article administration [1]: strong movement of ear, head and body with vocalization | Absorbance ([2]; 2 mg/mL, 4 mL/min, 0.45% NaCl): ++++ ((++++) = BQL of <0.003) | precipitation ([2]; citrate buffered solution in 0.45% saline at 2 mg/mL and 4 mL/min): does not exhibit precipitation and BQL

CC[C@H]1OC(=O)[C@@](C)(F)C(=O)[C@H](C)[C@@H](O[C@@H]2O[C@H](C)C[C@H](N(C)C)[C@H]2O)[C@](C)(OC)C[C@@H](C)C(=O)[C@H](C)[C@H]2N(CCCCn3cc(-c4cccc(N)c4)nn3)C(=O)O[C@]12C [SOL, solithromycin]
pain or other adverse events [3]: without evidence of pain or other adverse events | pKa1 [4]: 9.44 | pKa2 [4]: 3.5 | observations, Days 4 and 5 ([5]; 2 mg/mL, rate of 3 mL/min, also seen in the vehicle-treated rabbit): mechanical irritation around the needle stick, without reaction distal to the needle | further observation ([5]; 3 mg/mL, rate of 4 mL/min): Head and ear twitching | observations, Day 3 until day 5 ([5]; 3 mg/mL, rates of 3 or 4 mL/min): vessel dilation and irritation around and past the needle stick | adverse effects, Days 1 and 2 ([5]; 0.5% lactic acid formulation pH 4 in 0.45% saline, 5 mL once daily for 5 days, any of the rabbits): No adverse effects | pain or other adverse events [6]: without evidence of pain or other adverse events | Absorbance ([2]; 1 mg/mL in 0.45% Saline, 0.3 mL/min): BQL | Absorbance ([2]; 1 mg/mL in 0.45% Saline, 1.0 mL/min): BQL | Absorbance ([2]; 1 mg/mL in 0.45% Saline, 3.0 mL/min): BQL | Absorbance ([2]; 1 mg/mL in 0.45% Saline, 6.0 mL/min): about 0.1 | injection rates at which precipitation is noted ([2]; 1 mg/mL in 5% Mannitol): greater than or equal to 3.0 mL/min | Absorbance ([2]; 1 mg/mL in 5% Mannitol, 0.3 mL/min): BQL | Absorbance ([2]; 1 mg/mL in 5% Mannitol, 1.0 mL/min): BQL | Absorbance ([2]; 1 mg/mL in 5% Mannitol, 3.0 mL/min): 0.01 | Absorbance ([2]; 1 mg/mL in 5% Mannitol, 6.0 mL/min): about 0.05 | precipitation ([2]; 2 mg/mL in 10 mM Tartaric Acid in 5% Mannitol, pH 4.2, 3 mL/min, infusion 1 minute): minimal precipitation | precipitation ([2]; 2 mg/mL in 20 mM Tartaric Acid in 5% Mannitol, pH 4.2, 3 mL/min, infusion 1 minute): minimal precipitation | precipitation ([2]; 2 mg/mL in 38.5 mM Tartaric Acid and 0.5% Monothioglycerol in 3% Mannitol, pH 4.0, 2, 3 or 4 mL/min, infusion 5 minutes): minimal precipitation | precipitation ([2]; 2 mg/mL in 38.5 mM Tartaric Acid in 5% Mannitol, pH 4.0, 2, 3 or 4 mL/min, infusion 5 minutes): minimal precipitation | Absorbance ([2]; 2 mg/mL in 0.45% Saline, 0.3 mL/min): BQL | Absorbance ([2]; 2 mg/mL in 0.45% Saline, 1.0 mL/min): BQL | Absorbance ([2]; 2 mg/mL in 0.45% Saline, 3.0 mL/min): about 0.02 | Absorbance ([2]; 2 mg/mL in 0.45% Saline, 6.0 mL/min): about 0.1 | injection rates at which precipitation is noted ([2]; 2 mg/mL in 5% Mannitol): greater than or equal to 1.0 mL/min | Absorbance ([2]; 2 mg/mL in 5% Mannitol, 0.3 mL/min): BQL | Absorbance ([2]; 2 mg/mL in 5% Mannitol, 1.0 mL/min): about 0.03 | Absorbance ([2]; 2 mg/mL in 5% Mannitol, 3.0 mL/min): about 0.06 | Absorbance ([2]; 2 mg/mL in 5% Mannitol, 6.0 mL/min): about 0.1 | effect of tartaric acid on observed precipitation ([2]; 3 mg/mL in 5 mM Tartaric Acid in 5% Mannitol pH 4.2 vs SOL 2 mg/mL in 5% Mannitol, 2 or 3 mL/min, infusion 2 minutes): substantially decreases the amount of observed precipitation | injection rates at which precipitation is noted ([2]; 3 mg/mL in 0.45% Saline): greater than or equal to 1.0 mL/min | Absorbance ([2]; 3 mg/mL in 0.45% Saline, 0.3 mL/min): BQL | Absorbance ([2]; 3 mg/mL in 0.45% Saline, 1.0 mL/min): about 0.02 | Absorbance ([2]; 3 mg/mL in 0.45% Saline, 3.0 mL/min): about 0.1 | Absorbance ([2]; 3 mg/mL in 0.45% Saline, 6.0 mL/min): about 0.3 | injection rates at which precipitation is noted ([2]; 3 mg/mL in 5% Mannitol): greater than or equal to 1.0 mL/min | Absorbance ([2]; 3 mg/mL in 5% Mannitol, 0.3 mL/min): BQL | Absorbance ([2]; 3 mg/mL in 5% Mannitol, 1.0 mL/min): about 0.1 | Absorbance ([2]; 3 mg/mL in 5% Mannitol, 3.0 mL/min): about 0.4 | Absorbance ([2]; 3 mg/mL in 5% Mannitol, 6.0 mL/min): about 0.6 | Absorbance ([2]; 3 mg/mL, 3 mL/min, pH 4.0, 0.9% NaCl): − ((−) = ≥0.05) | effect of citrate buffer on precipitation ([2]; 0.5, 1 and 5 mM citrate buffer (pH 4) in 0.45% saline, 2 mg/mL and 3 mg/mL): does not significantly reduce precipitation | injection rates at which precipitation is noted ([2]; 2 or 1 mg/mL in 0.45% saline, 1.0 mL/min is borderline): greater than 1.0 mL/min | effect of tartrate buffer on precipitation ([2]; 10 or 25 mM tartrate buffer (pH 4) in 0.45% saline, 2 mg/mL and 3 mg/mL): does not significantly reduce precipitation

CC[C@H]1OC(=O)[C@H](C)[C@@H](O[C@H]2C[C@@](C)(OC)[C@@H](O)[C@H](C)O2)[C@H](C)[C@@H](O[C@@H]2O[C@H](C)C[C@H](N(C)C)[C@H]2O)[C@](C)(O)C[C@@H](C)C(=O)[C@H](C)[C@@H](O)[C@]1(C)O [erythromycin-lactobionate, erythromycin lactobionate, reference compound]
Absorbance ([2]; 2 mg/mL, 3 mL/min, 0.9% NaCl): ++++ ((++++) = BQL of <0.003)
